Target: T1, Rpf-1 (Rhodococcus erythropolis, UniProt C0ZMT9)
T1 construct: N-terminal Trx-His-S tag of pET-32a(+) kept (37 kDa on SDS-PAGE); forward primer encodes MSGRHR, reverse primer encodes C-terminal AKTFLK; conserved Cys50, Glu51, Cys114
Experiment: fluorogenic hydrolysis, 4-methylumbelliferone release ([…] nm)
Assay type: biochemical
Settings: 22 μM printed, McIlvaine phosphate-citrate buffer pH 5.2, 37 °C, 30 min

T1 sequence (C0ZMT9 entry or part of it): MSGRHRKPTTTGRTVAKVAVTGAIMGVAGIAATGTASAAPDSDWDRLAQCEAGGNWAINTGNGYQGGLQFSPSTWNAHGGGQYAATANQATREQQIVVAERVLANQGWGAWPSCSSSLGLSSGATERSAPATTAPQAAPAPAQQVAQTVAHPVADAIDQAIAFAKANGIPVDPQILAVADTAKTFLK

## CC(=O)N[C@H]1[C@H](Oc2ccc3c(C)cc(=O)oc3c2)O[C@H](CO)[C@@H](O[C@@H]2O[C@H](CO)[C@@H](O[C@@H]3O[C@H](CO)[C@@H](O)[C@H](O)[C@H]3NC(C)=O)[C@H](O)[C@H]2NC(C)=O)[C@@H]1O [4-methylumbelliferyl-β-D-N,N′,N″-triacetylchitotrioside]
  fluorogenic hydrolysis, 4-methylumbelliferone release (360/455 nm): The recombinant Rpf-1 showed muralytic activity when determined with the artificial lysozyme substrate

— publication PMC6534110, “Enzyme characterization and biological activities of a resuscitation promoting factor from an oil degrading bacterium Rhodococcus erythropolis KB1” (PeerJ, 2019)
